Patent publication EP0308559A2, “Cephalosporins, process for their preparation, pharmaceutical compositions containing them and intermediates” (BEECHAM GROUP PLC, priority 1987, dated 1989)
Structures can show the parent of a compound that is named as a salt.

How the values were obtained:
[1] = system: Pseudomonas aeruginosa Charlier; assay: Minimum Inhibitory Concentration (MIC) by serial dilution in agar; format: cell-based; details: 10⁴ colony forming units, incubated overnight at 37°C, lowest concentration to inhibit growth
Protocol: (§1) Minimum Inhibitory Concentration (MIC) values of compounds of the invention against Enterobacter cloacae P99 and Pseudomonas aeruginosa Charlier were determined by serial dilution in agar. The plates were inoculated with 10⁴ colony forming units and incubated overnight at 37°C. The MIC values recorded in Table 1 were the lowest concentration of antibiotic to inhibit growth. Comparative data for 7β-[2-(3,4-diacetoxyphenyl)-2-[4-ethyl-2,3-dioxopiperazin-1-yl)carbonylamino]-acetamido]-7α-formamido-3-[1-methyl-1H-tetrazol-5-yl) thiomethyl]ceph-3-em-4-carboxylic acid, sodium salt (compound A), disclosed in European Patent Application No.82303821.1 (Publication Number 0 071 395; Example 57), are also given.

[2] = system: Enterobacter cloacae P99; assay: as above; format: cell-based
Protocol: as §1

| SMILES | MIC [1] [µg/mL] | MIC [2] [µg/mL] |
| --- | --- | --- |
| CCN1CCN(C(=O)NC(C(=O)N[C@]2(NC=O)C(=O)N3C(C(=O)O)=C(CSc4nnnn4C)CS[C@@H]32)c2ccc(OC(C)=O)c(OC(C)=O)c2)C(=O)C1=O (stereo partly drawn) [Compound A, 7β-[2-(3,4-diacetoxyphenyl)-2-[4-ethyl-2,3-dioxopiperazin-1-yl)carbonylamino]acetamido]-7α-formamido-3-[1-methyl-1H-tetrazol-5-yl) thiomethyl]ceph-3-em-4-carboxylic acid, sodium salt, reference compound] | 4 | 8 |
| CCN1CCN(C(=O)N[C@@H](C(=O)N[C@]2(NC=O)C(=O)N3C(C(=O)O)=C(CSc4nnnn4N)CS[C@@H]32)c2ccc(OC(C)=O)c(OC(C)=O)c2)C(=O)C1=O [Example 1, Sodium 3-[(1-Amino-1H-tetrazol-5-yl)thiomethyl]-7β-[D-2-(3,4-diacetoxyphenyl)-2-[(4-ethyl-2,3-dioxopiperazin-1-yl)carbonylamino]acetamido]-7α-formamidoceph-3-em-4-carboxylate] | 2 | 2 |
| CCN1CCN(C(=O)N[C@@H](C(=O)N[C@]2(NC=O)C(=O)N3C(C(=O)O)=C(CSc4nnnn4N)CS[C@@H]32)c2ccc(O)c(O)c2)C(=O)C1=O [Example 2, Sodium 3-[(1-Amino-1H-tetrazol-5-yl)thiomethyl]-7β-[D-2-(3,4-dihydroxyphenyl)-2-[(4-ethyl-2,3-dioxopiperazin-1-yl)carbonylamino]acetamido]-7α-formamidoceph-3-em-4-carboxylate] | 2 | 4 |
